Columns and labels:
bedstraw = assay: Test B pre/postemergence bedstraw; type: in vivo, Galium aparine; conditions: Preemergence
How it was run: (§1)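 Response is a visual 0-to-10 score relative to untreated plants, where 0 means no effect and 10 means complete control, taken twelve to sixteen days after application. Treatments went onto soil at planting and onto foliage of 1- to 4-leaf plants, using a surfactant-containing non-phytotoxic solvent.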

blackgrass = assay: Test B pre/postemergence blackgrass; type: in vivo, Alopecurus myosuroides
How it was run: as §1

surinam grass = assay: Test B pre/postemergence surinam grass; type: in vivo, Brachiaria decumbens
How it was run: as §1

cocklebur = assay: Test B pre/postemergence cocklebur; type: in vivo, Xanthium strumarium
How it was run: as §1

corn = assay: Test B pre/postemergence corn; type: in vivo, Zea mays
How it was run: as §1

crabgrass = assay: Test B pre/postemergence crabgrass; type: in vivo, Digitaria sanguinalis
How it was run: as §1

morningglory = assay: Test B pre/postemergence morningglory; type: in vivo, Ipomoea hederacea
How it was run: as §1

pigweed = assay: Test B pre/postemergence pigweed; type: in vivo, Amaranthus retroflexus
How it was run: as §1

rape = assay: Test B pre/postemergence rape; type: in vivo, Brassica napus
How it was run: as §1

sugar beet = assay: Test B pre/postemergence sugar beet; type: in vivo, Beta vulgaris; conditions: for Plant response rating, Sugarbeets: Rate 250 g/ha
How it was run: as §1

velvetleaf = assay: Test B pre/postemergence velvetleaf; type: in vivo, Abutilon theophrasti; conditions: for Plant response rating, Velvetleaf: Rate 250 g/ha
How it was run: as §1

wheat = assay: Test B pre/postemergence wheat; type: in vivo, Triticum aestivum; conditions: for Plant response rating, Wheat: Rate 250 g/ha
How it was run: as §1

wild oat = assay: Test B pre/postemergence wild oat; type: in vivo, Avena fatua; conditions: for Plant response rating, Wild oats: Rate 250 g/ha
How it was run: as §1

purple nutsedge = assay: Test B pre/postemergence purple nutsedge; type: in vivo, Cyperus rotundus
How it was run: as §1

smallflower flatsedge = assay: Test B flood test smallflower flatsedge; type: in vivo, Cyperus difformis
How it was run: (§2)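 Plants were grown to the 2-leaf stage before treatment with test chemical, then held in a greenhouse for twelve to sixteen days. Injury was visually rated against untreated controls on a 0–10 scale, where 0 is no effect and 10 is complete control.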

duck salad = assay: Test B flood test duck salad; type: in vivo, Heteranthera limosa
How it was run: as §2

[1] = Postemergence, Rate 62 g/ha, scale 0 to 10, 0 is no effect, 10 is complete control
[2] = Postemergence, Rate 125 g/ha, scale of 0 to 10 where 0 is no effect and 10 is complete control
[3] = Postemergence, Rate 250 g/ha, scale 0 to 10, 0 no effect, 10 complete control
[4] = Preemergence, Rate 62 g/ha, scale 0 to 10 (0 no effect, 10 complete control)
[5] = Preemergence, Rate 125 g/ha, scale 0 to 10 (0 no effect, 10 complete control)
[6] = Preemergence, Rate 250 g/ha, scale of 0 to 10 where 0 is no effect and 10 is complete control
[7] = Preemergence, Rate 500 g/ha, scale 0 (no effect) to 10 (complete control)
[8] = Rate 500 g/ha, Postemergence, scale 0 to 10, 0 no effect, 10 complete control
[9] = Preemergence, Rate 125 g/ha, 0 is no effect, 10 is complete control
[10] = Preemergence, scale of 0 to 10 where 0 is no effect and 10 is complete control
[11] = Postemergence, scale 0 to 10, 0 is no effect, 10 is complete control
[12] = Postemergence (flood test species), Rate 125 g/ha, scale of 0 to 10 where 0 is no effect and 10 is complete control
[13] = Rate 250 g/ha, headed Pre-emergence (flood test species), scale 0 to 10 (0 no effect, 10 complete control)
[14] = Rate 500 g/ha, headed Pre-emergence (flood test species), scale 0 to 10 (0 no effect, 10 complete control)
[15] = Rate 500 g/ha, listed under Postemergence (flood test species), scale 0 to 10, 0 no effect, 10 complete control
[16] = Rate 2000 g/ha, Pre-emergence (as headed), scale 0 to 10

## CC(C)N(C(=O)n1oc(=O)n(Cc2ccccc2)c1=O)c1ccccc1 [Compound 94]
bedstraw; Rate 62 g/ha, scale 0 to 10 (0 no effect, 10 complete control)
  Bedstraw plant response rating: 0
bedstraw; Rate 125 g/ha, scale 0 to 10 (0 no effect, 10 complete control)
  Plant response rating, Bedstraw: 0
bedstraw; Rate 250 g/ha, scale of 0 to 10 where 0 is no effect and 10 is complete control
  Plant response rating, Bedstraw: 0
bedstraw; Rate 500 g/ha, scale 0 (no effect) to 10 (complete control)
  Bedstraw plant response rating: 0
blackgrass; [1]
  Blackgrass plant response rating: 0
blackgrass; [2]
  Blackgrass plant response rating: 0
blackgrass; [3]
  Blackgrass plant response rating: 3
blackgrass; [4]
  Blackgrass plant response rating: 0
blackgrass; [5]
  Plant response rating, Blackgrass: 1
blackgrass; [6]
  Plant response rating, Blackgrass: 8
blackgrass; [7]
  Blackgrass plant response rating: 9
blackgrass; [8]
  Blackgrass plant response rating: 6
Surinam grass; [1]
  B. signalgrass plant response rating: 0
Surinam grass; [3]
  B. signalgrass plant response rating: 0
Surinam grass; [4]
  B. signalgrass plant response rating: 0
Surinam grass; [5]
  Plant response rating, B. signalgrass: 1
Surinam grass; [6]
  Plant response rating, B. signalgrass: 1
Surinam grass; [7]
  B. signalgrass plant response rating: 5
Surinam grass; Rate 125 g/ha, Postemergence, scale 0 to 10, 0 no effect, 10 complete control
  B. signalgrass plant response rating: 0
Surinam grass; Rate 500 g/ha, Postemergence, scale of 0 to 10 where 0 is no effect and 10 is complete control
  B. signalgrass plant response rating: 2
cocklebur; [1]
  Cocklebur plant response rating: 0
cocklebur; [2]
  Cocklebur plant response rating: 1
cocklebur; [3]
  Cocklebur plant response rating: 1
cocklebur; [4]
  Cocklebur plant response rating: 0
cocklebur; [5]
  Plant response rating, Cocklebur: 0
cocklebur; [6]
  Plant response rating, Cocklebur: 0
cocklebur; [8]
  Cocklebur plant response rating: 3
corn; [1]
  Corn plant response rating: 0
corn; [2]
  Corn plant response rating: 0
corn; [3]
  Corn plant response rating: 0
corn; [4]
  Corn plant response rating: 0
corn; [5]
  Plant response rating, Corn: 2
corn; [6]
  Plant response rating, Corn: 3
corn; [7]
  Corn plant response rating: 6
corn; [8]
  Corn plant response rating: 0
crabgrass; [1]
  Crabgrass plant response rating: 3
crabgrass; [2]
  Crabgrass plant response rating: 3
crabgrass; [3]
  Crabgrass plant response rating: 8
crabgrass; [4]
  Crabgrass plant response rating: 3
crabgrass; [5]
  Plant response rating, Crabgrass: 3
crabgrass; [6]
  Plant response rating, Crabgrass: 6
crabgrass; [7]
  Crabgrass plant response rating: 10
crabgrass; [8]
  Crabgrass plant response rating: 9
morningglory; [1]
  Morningglory plant response rating: 10
morningglory; [2]
  Morningglory plant response rating: 10
morningglory; [3]
  Morningglory plant response rating: 10
morningglory; [4]
  Morningglory plant response rating: 0
morningglory; [5]
  Plant response rating, Morningglory: 0
morningglory; [6]
  Plant response rating, Morningglory: 0
morningglory; [7]
  Morningglory plant response rating: 0
morningglory; [8]
  Morningglory plant response rating: 10
pigweed; [1]
  Redroot pigweed plant response rating: 0
pigweed; [2]
  Redroot pigweed plant response rating: 0
pigweed; [4]
  Redroot pigweed plant response rating: 0
pigweed; [5]
  Plant response rating, Redroot pigweed: 0
pigweed; [6]
  Plant response rating, Redroot pigweed: 0
pigweed; [7]
  Redroot pigweed plant response rating: 4
pigweed; Rate 250 g/ha, Postemergence, scale 0 to 10, 0 is no effect, 10 is complete control
  Plant response rating, Redroot pigweed: 2
pigweed; [8]
  Redroot pigweed plant response rating: 4
rape; [1]
  Rape plant response rating: 1
rape; [2]
  Rape plant response rating: 2
rape; [3]
  Rape plant response rating: 2
rape; [4]
  Rape plant response rating: 0
rape; [5]
  Plant response rating, Rape: 0
rape; [6]
  Plant response rating, Rape: 2
rape; [7]
  Rape plant response rating: 5
rape; [8]
  Rape plant response rating: 3
Sugar beet; [1]
  Sugarbeets plant response rating: 2
Sugar beet; [2]
  Sugarbeets plant response rating: 2
Sugar beet; [4]
  Sugarbeets plant response rating: 0
Sugar beet; [9]
  Sugarbeets plant response rating (0 to 10 scale): 0
Sugar beet; [10]
  Plant response rating, Sugarbeets: 0
Sugar beet; [7]
  Sugarbeets plant response rating: 2
Sugar beet; [11]
  Plant response rating, Sugarbeets: 2
Sugar beet; [8]
  Sugarbeets plant response rating: 3
velvetleaf; [1]
  Velvetleaf plant response rating: 0
velvetleaf; [2]
  Velvetleaf plant response rating: 0
velvetleaf; [4]
  Velvetleaf plant response rating: 0
velvetleaf; [9]
  Velvetleaf plant response rating (0 to 10 scale): 0
velvetleaf; [10]
  Plant response rating, Velvetleaf: 0
velvetleaf; [7]
  Velvetleaf plant response rating: 3
velvetleaf; [11]
  Plant response rating, Velvetleaf: 4
velvetleaf; [8]
  Velvetleaf plant response rating: 6
wheat; [1]
  Wheat plant response rating: 0
wheat; [2]
  Wheat plant response rating: 0
wheat; [4]
  Wheat plant response rating: 0
wheat; [9]
  Wheat plant response rating (0 to 10 scale): 0
wheat; [10]
  Plant response rating, Wheat: 0
wheat; [7]
  Wheat plant response rating: 0
wheat; [11]
  Plant response rating, Wheat: 0
wheat; [8]
  Wheat plant response rating: 0
Wild oat; [1]
  Wild oats plant response rating: 0
Wild oat; [2]
  Wild oats plant response rating: 0
Wild oat; [4]
  Wild oats plant response rating: 0
Wild oat; [9]
  Wild oats plant response rating (0 to 10 scale): 3
Wild oat; [10]
  Plant response rating, Wild oats: 4
Wild oat; [7]
  Wild oats plant response rating: 6
Wild oat; [11]
  Plant response rating, Wild oats: 0
Wild oat; [8]
  Wild oats plant response rating: 1
Purple nutsedge; [1]
  Nutsedge plant response rating: 0
Purple nutsedge; [2]
  Nutsedge plant response rating: 0
Purple nutsedge; [3]
  Nutsedge plant response rating: 0
Purple nutsedge; [4]
  Nutsedge plant response rating: 0
Purple nutsedge; [5]
  Plant response rating, Nutsedge: 0
Purple nutsedge; [6]
  Plant response rating, Nutsedge: 0
Purple nutsedge; [7]
  Nutsedge plant response rating: 0
Purple nutsedge; [8]
  Nutsedge plant response rating: 0
Smallflower flatsedge; [12]
  S. Flatsedge plant response rating: 0
Smallflower flatsedge; [1]
  S. Flatsedge plant response rating: 0
Smallflower flatsedge; Pre-emergence, Rate 1000 g/ha, scale 0 to 10 (0 no effect, 10 complete control)
  S. Flatsedge plant response rating: 0
Smallflower flatsedge; Rate 250 g/ha, Postemergence (flood test), scale 0 to 10, 0 is no effect, 10 is complete control
  Plant response rating, S. Flatsedge: 0
Smallflower flatsedge; [13]
  S. Flatsedge plant response rating: 0
Smallflower flatsedge; [14]
  Plant response rating, S. Flatsedge: 0
Smallflower flatsedge; [15]
  S. Flatsedge plant response rating: 9
Smallflower flatsedge; [16]
  S. Flatsedge plant response rating: 8
Duck salad; [12]
  Ducksalad plant response rating: 0
Duck salad; [1]
  Ducksalad plant response rating: 0
Duck salad; [13]
  Ducksalad plant response rating: 0
Duck salad; [14]
  Plant response rating, Ducksalad: 0
Duck salad; [15]
  Ducksalad plant response rating: 2
Duck salad; Rate 1000 g/ha, Pre-emergence (as headed), scale 0 to 10
  Ducksalad plant response rating: 0
Duck salad; [16]
  Ducksalad plant response rating: 0
Duck salad; flood test, listed under Postemergence, Rate 250 g/ha, scale 0 to 10, 0 no effect, 10 complete control
  Ducksalad plant response rating: 0

Reference: patent publication US6737383B1, “Herbicidal oxadiazolidines” (priority 1999, dated 2004)
